tested on: HIV-1 (IIIB) in MT-4 cells; experiment: microbe, parasite or virus in culture; type: cell-based; conditions: Human immunodeficiency virus 1, IIIB, MT4, MT-4 cells, HIV-1; read-out: MT4 EC50
Protocol: Compounds were serially diluted (1:3) in DMSO on 384-well polypropylene plates and further diluted 200-fold into complete RPMI media (10% FBS, 1% P/S) using the Biotek Micro Flow and Agilent ECHO acoustic dispenser. Each plate contained up to 8 test compounds, with negative (No Drug Control) and 5 uM AZT positive controls. MT-4 cells were pre-infected with 10 uL of either RPMI (mock-infected) or a fresh 1:250 dilution of an HIV-1 (IIIB) concentrated virus stock. Infected and uninfected MT-4 cells were further diluted in complete RPMI media and added to each plate using a Micro Flow dispenser. After 5 days incubation in a humidified and temperature controlled incubator (37° C.), Cell Titer Glo (Promega) was added to the assay plates to quantify the amount of luciferase.

Compared with `CC(C)(C)C[C@]1(c2ccc(-c3cnn(C(F)F)c3)cc2)NC(=N)N([C@H](COC(=O)N2CC(F)(F)C2)c2ccc(Cl)c(-c3ncn[nH]3)c2)C1=O` [Compound 67], `CC(C)(C)C[C@]1(c2ccc(-c3cnn(C(F)F)c3)cc2)NC(=N)N([C@H](COC(=O)N2CC(C)(F)C2)c2ccc(Cl)c(-c3ncn[nH]3)c2)C1=O` [Compound 76] is 1.7-fold higher in EC50: 20.8 nM for the first, 34.8 nM for the second.

`CC(C)(C)C[C@]1(c2ccc(-c3cnn(C(F)F)c3)cc2)NC(=N)N([C@H](COC(=O)NC(C)(C)C)c2ccc(Cl)c(-c3ncn[nH]3)c2)C1=O` [Compound 68] and `CN(C)C(=O)OC[C@H](c1ccc(Cl)c(-c2ncn[nH]2)c1)N1C(=N)N[C@](CC(C)(C)C)(c2ccc(-c3cnn(C(F)F)c3)cc2)C1=O` [Compound 81] are within 1.5-fold of each other in EC50: 21.6 nM for the first, 31.6 nM for the second.

`CC(C)(C)C[C@]1(c2ccc(-c3cnn(C(F)F)c3)cc2)NC(=N)N([C@H](COC(=O)NC(C)(C)C(F)F)c2ccc(Cl)c(-c3ncn(C(F)F)n3)c2)C1=O` [Compound 69] and `CC(C)(C)C[C@]1(c2ccc(-c3cnn(C(F)F)c3)cc2)NC(=N)N([C@H](COC(=O)NC2(C)CC2)c2ccc(Cl)c(-c3ncn(C(F)F)n3)c2)C1=O` [Compound 70] are within 1.5-fold of each other in EC50: 32.6 nM for the first, 29.4 nM for the second.

First: CC(C)(C)C[C@]1(c2ccc(-c3cnn(C(F)F)c3)cc2)NC(=N)N([C@H](COC(=O)NC2(C(F)(F)F)CC2)c2ccc(Cl)c(C#N)c2)C1=O [Compound 71]
Second: CC(C)(C)C[C@]1(c2ccc(-c3cnn(C(F)F)c3)cc2)NC(=N)N([C@H](COC(=O)NC2(C(F)F)CC2)c2ccc(Cl)c(-c3ncn[nH]3)c2)C1=O [Compound 93]
The EC50 of the first is 3.1-fold higher: 324 nM for the first, 105 nM for the second.

Going from `CC(C)(C)C[C@]1(c2ccc(-c3cnn(C(F)F)c3)cc2)NC(=N)N([C@H](COC(=O)N2CC(C)(C)C2)c2ccc(Cl)c(-c3ncn[nH]3)c2)C1=O` [Compound 75] to `CC(C)(C)C[C@]1(c2ccc(-c3cnn(C(F)F)c3)cc2)NC(=N)N([C@H](COC(=O)N2CC(C)(C#N)C2)c2ccc(Cl)c(-c3ncn[nH]3)c2)C1=O` [Compound 85], the EC50 rises from 30.5 nM to 112 nM (3.7-fold).

`CC(C)(C)C[C@]1(c2ccc(-c3cnn(C4CC4)c3)cc2)NC(=N)N([C@H](COC(=O)N2CC(F)(F)C2)c2ccc(Cl)c(-c3ncn[nH]3)c2)C1=O` [Compound 77] and `CC(C)(C)C[C@]1(c2ccc(-c3cnn(C(F)F)c3)cc2)NC(=N)N([C@H](COC(=O)N2CC3(CC3)C2)c2ccc(Cl)c(-c3ncn[nH]3)c2)C1=O` [Compound 87] are within 1.5-fold of each other in EC50: 38.9 nM for the first, 38.5 nM for the second.

Compared with `CC(C)(C)C[C@]1(c2ccc(-c3cnn(C4CC4)c3)cc2)NC(=N)N([C@H](COC(=O)NC(C)(C)C(F)F)c2ccc(Cl)c(-c3ncn[nH]3)c2)C1=O` [Compound 79], `CC1CCN1C(=O)OC[C@H](c1ccc(Cl)c(-c2ncn[nH]2)c1)N1C(=N)N[C@](CC(C)(C)C)(c2ccc(-c3cnn(C(F)F)c3)cc2)C1=O` (some centres unmarked) [Compound 88] is 2.7-fold lower in EC50: 64.5 nM for the first, 24.3 nM for the second.

`CC(C)(C)C[C@]1(c2ccc(-c3cnn(C(F)F)c3)cc2)NC(=N)N([C@H](COC(=O)N(CC(F)F)C2CC2)c2ccc(Cl)c(-c3ncn[nH]3)c2)C1=O` [Compound 80] and `CC(C)(C)C[C@]1(c2ccc(-c3cnn(C(F)F)c3)cc2)NC(=N)N([C@H](COC(=O)N2CCC2)c2ccc(Cl)c(-c3ncn[nH]3)c2)C1=O` [Compound 86] are within 1.5-fold of each other in EC50: 28.8 nM for the first, 35.4 nM for the second.

First: CC(C)(C)C[C@]1(c2ccc(-c3cnn(C(F)F)c3)cc2)NC(=N)N([C@H](COC(=O)N2CC3(COC3)C2)c2ccc(Cl)c(-c3ncn[nH]3)c2)C1=O [Compound 82]
Second: CC(C)(C)C[C@]1(c2ccc(-c3cnn(C(F)F)c3)cc2)NC(=N)N([C@H](COC(=O)N2CC3(CCO3)C2)c2ccc(Cl)c(-c3ncn[nH]3)c2)C1=O [Compound 92]
The EC50 of the first is 1.6-fold higher: 180 nM for the first, 113 nM for the second.

Compared with `CC(C)(C)C[C@]1(c2ccc(-c3cnn(C(F)F)c3)cc2)NC(=N)N([C@H](COC(=O)N2CC(C(F)(F)F)C2)c2ccc(Cl)c(-c3ncn[nH]3)c2)C1=O` [Compound 83], `CC(C)(C)C[C@]1(c2ccc(-c3cnn(C(F)F)c3)cc2)NC(=N)N([C@H](COC(=O)N2CC(S(C)(=O)=O)C2)c2ccc(Cl)c(-c3ncn[nH]3)c2)C1=O` [Compound 84] is 31-fold higher in EC50: 33.4 nM for the first, 1050 nM for the second.

Source: patent US10774053B2, “HIV protease inhibitors” (Gilead Sciences, Inc., priority 2017, dated 2020)
